In patent US11566007B2, “Ras inhibitors” (Revolution Medicines, Inc., priority 2019, dated 2023):

Key:
[1] = tested on: NCI-H358 cells (K-Ras G12C); experiment: Potency assay: pERK in NCI-H358 cells; format: cell-based, human; conditions: Homo sapiens, NCI-H358; H358 KRAS G12C; read-out: pERK EC50
Summary of the method: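 Compounds are dosed as ten 3-fold dilutions from a 10 mM DMSO stock, in duplicate, and left on cells for 4 h at 37 °C, 5% CO2. Phospho-ERK1/2 is then quantified by AlphaLISA SureFire Ultra or In-Cell Western, and IC50 is derived from a 4-parameter sigmoid against log concentration.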

[2] = target: K-Ras G12C (Homo sapiens (Human), UniProt P01116+P62937, G12C); experiment: Ras-Raf (BRAF RBD) disruption / FRET / MOA assay, KRAS G12C; format: biochemical; conditions: KRAS G12C; Ras-Raf disruption/FRET/MOA assay; read-out: IC50* KRAS G12C FRET data
Summary of the method: (§1)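 Ras:RAF disruption was scored as a fall in TR-FRET ratio relative to DMSO. Compound ranged in 3-fold steps over 10 points from 30 μM final; incubation ran 3 h at 25° C, detection antibodies a further 1.5 h. Reported as IC50.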

[3] = target: K-Ras G13C (Homo sapiens (Human), UniProt P01116+P62937, G13C); experiment: Ras-Raf (BRAF RBD) disruption / FRET / MOA assay, KRAS G13C; format: biochemical; conditions: KRAS G13C; Ras-Raf disruption/FRET/MOA assay; read-out: IC50* KRAS G13C FRET data
Summary of the method: as §1

[4] = target: KRAS G12D (Homo sapiens (Human), UniProt P01116+P62937, G12D); experiment: Ras-Raf (BRAF RBD) disruption / FRET / MOA assay, KRAS G12D; format: biochemical; conditions: Ras-Raf disruption/FRET/MOA assay; class symbols; read-out: KRAS G12D FRET data IC50
Summary of the method: as §1

[5] = target: KRAS G12V (Homo sapiens (Human), UniProt P01116+P62937, G12V); experiment: Ras-Raf (BRAF RBD) disruption / FRET / MOA assay, KRAS G12V; format: biochemical; conditions: read-out: IC50* KRAS G12V FRET data
Summary of the method: as §1

[6] = target: KRAS G13D (Homo sapiens (Human), UniProt P01116+P62937, G13D); experiment: Ras-Raf (BRAF RBD) disruption / FRET / MOA assay, KRAS G13D; format: biochemical; conditions: read-out: IC50* KRAS G13D FRET data
Summary of the method: as §1

[7] = target: NRAS Q61R (Homo sapiens (Human), UniProt P01111+P62937, Q61R); experiment: Ras-Raf (BRAF RBD) disruption / FRET / MOA assay, NRAS Q61R; format: biochemical; conditions: NRAS Q61R; Ras-Raf disruption/FRET/MOA assay; read-out: IC50* NRAS Q61R FRET data
Summary of the method: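 TR-FRET disruption of nucleotide-loaded Ras binding to BRAF RBD via compound-driven ternary complex with cyclophilin A. Compound as 10-point 3-fold series from 30 μM final, 3 h at 25° C, then anti-His Eu-W1024 (10 nM) and anti-GST allophycocyanin (50 nM) for 1.5 h. IC50 from decreased FRET ratio versus DMSO.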

Chain of KRAS G12D (P01116-2 other isoform, or with tags, fused parts or gaps G12D): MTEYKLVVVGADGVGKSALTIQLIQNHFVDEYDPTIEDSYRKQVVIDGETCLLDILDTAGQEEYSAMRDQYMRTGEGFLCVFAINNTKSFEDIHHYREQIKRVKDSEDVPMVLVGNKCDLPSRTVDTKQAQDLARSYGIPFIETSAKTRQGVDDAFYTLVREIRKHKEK
Chain of KRAS G12D (P62937 whole entry): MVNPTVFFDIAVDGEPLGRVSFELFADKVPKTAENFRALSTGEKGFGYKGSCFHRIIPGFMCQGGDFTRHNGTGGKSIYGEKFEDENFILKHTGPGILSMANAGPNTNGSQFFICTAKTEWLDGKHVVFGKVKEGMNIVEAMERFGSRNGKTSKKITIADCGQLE
Chain of K-Ras G13C (P01116-2 other isoform, or with tags, fused parts or gaps G13C): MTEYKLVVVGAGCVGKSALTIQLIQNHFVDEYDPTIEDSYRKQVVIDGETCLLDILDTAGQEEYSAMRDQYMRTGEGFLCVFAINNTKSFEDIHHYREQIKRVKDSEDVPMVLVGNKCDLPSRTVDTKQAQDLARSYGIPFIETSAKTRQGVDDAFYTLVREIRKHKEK
Chain of K-Ras G13C (P62937 whole entry): as the sequence (P62937 whole entry) above
Chain of KRAS G13D (P01116-2 other isoform, or with tags, fused parts or gaps G13D): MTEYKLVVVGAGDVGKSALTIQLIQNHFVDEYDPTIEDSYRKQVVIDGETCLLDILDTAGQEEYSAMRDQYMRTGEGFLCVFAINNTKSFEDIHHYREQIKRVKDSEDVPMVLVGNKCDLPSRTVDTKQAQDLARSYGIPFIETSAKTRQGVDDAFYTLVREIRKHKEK
Chain of KRAS G13D (P62937 whole entry): as the sequence (P62937 whole entry) above
Chain of KRAS G12V (P01116-2 other isoform, or with tags, fused parts or gaps G12V): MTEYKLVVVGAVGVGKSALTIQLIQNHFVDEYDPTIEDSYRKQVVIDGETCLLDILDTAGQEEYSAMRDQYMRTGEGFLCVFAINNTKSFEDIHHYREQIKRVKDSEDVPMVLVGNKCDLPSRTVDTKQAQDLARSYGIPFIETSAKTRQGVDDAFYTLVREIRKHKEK
Chain of KRAS G12V (P62937 whole entry): as the sequence (P62937 whole entry) above
Chain of NRAS Q61R (P01111 whole entry Q61R): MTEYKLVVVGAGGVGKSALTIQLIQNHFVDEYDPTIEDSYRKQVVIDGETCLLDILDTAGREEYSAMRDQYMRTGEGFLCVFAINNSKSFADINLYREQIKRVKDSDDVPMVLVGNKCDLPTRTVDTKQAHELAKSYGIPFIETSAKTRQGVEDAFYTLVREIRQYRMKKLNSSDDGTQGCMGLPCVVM
Chain of NRAS Q61R (P62937 whole entry): as the sequence (P62937 whole entry) above
Chain of K-Ras G12C (P01116-2 other isoform, or with tags, fused parts or gaps G12C): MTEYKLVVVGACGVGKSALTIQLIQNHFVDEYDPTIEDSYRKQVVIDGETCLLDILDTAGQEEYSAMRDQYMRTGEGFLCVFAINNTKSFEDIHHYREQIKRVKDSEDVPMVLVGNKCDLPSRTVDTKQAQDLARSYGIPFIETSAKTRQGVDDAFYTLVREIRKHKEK
Chain of K-Ras G12C (P62937 whole entry): as the sequence (P62937 whole entry) above

Row | Structure (SMILES) | EC50 [1] [nM] | IC50 [2] [nM] | IC50 [3] [nM] | IC50 [4] [nM] | IC50 [5] [nM] | IC50 [6] [nM] | IC50 [7] [nM]
1 | C=CC(=O)N1C[C@H](C)N(C(=O)N(C)[C@H](C(=O)N[C@H]2Cc3nc(cs3)-c3ccc4c(c3)c(c(-c3cccnc3[C@H](C)OC)n4CC)CC(C)(C)COC(=O)[C@@H]3CCCN(N3)C2=O)C(C)C)[C@@H](C)C1 (atropisomer, axis not shown) [Example A386] | < 5000 | 10 to 100 | 100 to 1000 | 100 to 1000 | 100 to 1000 | 100 to 1000 | 10 to 100
2 | C=CC(=O)N1C[C@@H](C)N(C(=O)N(C)[C@H](C(=O)N[C@H]2Cc3nc(cs3)-c3ccc4c(c3)c(c(-c3cccnc3[C@H](C)OC)n4CC)CC(C)(C)COC(=O)[C@@H]3CCCN(N3)C2=O)C(C)C)[C@@H](C)C1 (atropisomer, axis not shown) [Example A387] | < 5000 | 10 to 100 | 100 to 1000 | 100 to 1000 | 100 to 1000 | 100 to 1000 | 10 to 100
3 | C=CC(=O)N1CC2(CCN(C(=O)N(C)[C@H](C(=O)N[C@H]3Cc4nc(cs4)-c4ccc5c(c4)c(c(-c4cccnc4[C@H](C)OC)n5CC)CC(C)(C)COC(=O)[C@@H]4CCCN(N4)C3=O)C(C)C)CC2)C1 (atropisomer, axis not shown) [Example A394] | < 5000 | 10 to 100 | 10 to 100 | 100 to 1000 | 100 to 1000 | 100 to 1000 | 100 to 1000
4 | C=CC(=O)N1CCN(C(=O)N(C)[C@H](C(=O)N[C@H]2Cc3nc(cs3)-c3ccc4c(c3)c(c(-c3cccnc3[C@H](C)OC)n4CC)CC(C)(C)COC(=O)[C@@H]3CCCN(N3)C2=O)C(C)C)CC12CC2 (atropisomer, axis not shown) [Example A417] | < 5000 | 10 to 100 | 10 to 100 | 100 to 1000 | 100 to 1000 | 100 to 1000 | 10 to 100
5 | CCn1c(-c2cccnc2[C@H](C)OC)c2c3cc(ccc31)-c1csc(n1)C[C@H](NC(=O)CCOC1CN(C(=O)C#CC(C)(C)N(C)C)C1)C(=O)N1CCC[C@H](N1)C(=O)OCC(C)(C)C2 (atropisomer, axis not shown) [Example A427, 3-((1-(4-(dimethylamino)-4-methylpent-2-ynoyl)azetidin-3-yl)oxy)-N-((6^3S,4S,Z)-1^1-ethyl-1^2-(2-((S)-1-methoxyethyl)pyridin-3-yl)-10,10-dimethyl-5,7-dioxo-6^1,6^2,6^3,6^4,6^5,6^6-hexahydro-1^1H-8-oxa-2(4,2)-thiazola-1(5,3)-indola-6(1,3)-pyridazinacycloundecaphane-4-yl)propanamide] | < 5000 | < 10 | 1000 to 10000 | > 10000 | 1000 to 10000 | 1000 to 10000 | > 10000
6 | C=CC(=O)N1CC[C@H](C(=O)N(C)[C@H](C(=O)N[C@H]2Cc3cccc(c3)-c3ccc4c(c3)c(c(-c3cc5c(nc3[C@H](C)OC)CCN(C)C5)n4CC)CC(C)(C)COC(=O)[C@@H]3CCCN(N3)C2=O)C(C)C)C1 (atropisomer, axis not shown) [Example A461] | < 5000 | 100 to 1000 | 1000 to 10000 | > 10000 | 1000 to 10000 | > 10000 | 1000 to 10000
7 | C=CC(=O)N(C)C1CN(C(=O)N(C)[C@H](C(=O)N[C@H]2Cc3nc(cs3)-c3ccc4c(c3)c(c(-c3cccnc3[C@H](C)OC)n4CC)CC(C)(C)COC(=O)[C@@H]3CCCN(N3)C2=O)C(C)C)C1 (atropisomer, axis not shown) [Example A463] | < 5000 | 10 to 100 | 100 to 1000 | 1000 to 10000 | 100 to 1000 | 100 to 1000 | 100 to 1000
8 | C=CC(=O)N1CC[C@H](C(=O)N(C)[C@H](C(=O)N[C@H]2Cc3nc(cs3)-c3ccc4c(c3)c(c(-c3cc5c(nc3[C@H](C)OC)CCN(C)C5)n4CC)CC(C)(C)COC(=O)[C@@H]3CCCN(N3)C2=O)C(C)C)C1 (atropisomer, axis not shown) [Example A472] | < 5000 | 100 to 1000 | 1000 to 10000 | > 10000 | 1000 to 10000 | 1000 to 10000 | 1000 to 10000
9 | C=CC(=O)N1CC[C@H](C(=O)N(C)[C@H](C(=O)N[C@H]2Cc3cc(C)cc(c3)-c3ccc4c(c3)c(c(-c3cccnc3[C@H](C)OC)n4CC)CC(C)(C)COC(=O)[C@@H]3CCCN(N3)C2=O)C(C)C)C1 (atropisomer, axis not shown) [Example A498] | < 5000 | 100 to 1000 | 1000 to 10000 | > 10000 | 1000 to 10000 | > 10000 | 1000 to 10000
10 | C=CC(=O)N1CC[C@H](C(=O)N(C)[C@H](C(=O)N[C@H]2Cc3cccc(c3)-c3ccc4c(c3)c(c(-c3cccnc3[C@H](C)OC)n4CC#CC)CC(C)(C)COC(=O)[C@@H]3CCCN(N3)C2=O)C(C)C)C1 (atropisomer, axis not shown) [Example A531] | < 5000 | 100 to 1000 | 1000 to 10000 | > 10000 | 1000 to 10000 | > 10000 | 1000 to 10000
11 | C=CC(=O)N1CCOC2(C1)CN(C(=O)N(C)[C@H](C(=O)N[C@H]1Cc3cccc(c3)-c3ccc4c(c3)c(c(-c3cccnc3[C@H](C)OC)n4CC(F)(F)F)CC(C)(C)COC(=O)[C@@H]3CCCN(N3)C1=O)C(C)C)C2 (atropisomer, axis not shown) [Example A538] | < 5000 | 10 to 100 | 10 to 100 | 1000 to 10000 | 100 to 1000 | 100 to 1000 | 100 to 1000
12 | CO[C@@H](C)c1ncccc1-c1c2c3cc(ccc3n1CC(F)(F)F)-c1cccc(c1)C[C@H](NC(=O)[C@H](C(C)C)N(C)C(=O)N1CCC3(CC1)CN(C(=O)/C=C/CN(C)C)C3)C(=O)N1CCC[C@H](N1)C(=O)OCC(C)(C)C2 (atropisomer, axis not shown) [Example A555] | < 5000 | 100 to 1000 | 10 to 100 | 100 to 1000 | 100 to 1000 | 100 to 1000 | 100 to 1000
13 | CCn1c(-c2cccnc2[C@H](C)OC)c2c3cc(ccc31)-c1cccc(c1)C[C@H](NC(=O)[C@H](C(C)C)N1CC[C@@]3(CCN(C(=O)C#C[C@H]4COCCN4C4COC4)C3)C1=O)C(=O)N1CCC[C@H](N1)C(=O)OCC(C)(C)C2 (atropisomer, axis not shown) [Example A567] | < 5000 | 10 to 100 | 100 to 1000 | 1000 to 10000 | 1000 to 10000 | 1000 to 10000 | 1000 to 10000
14 | C=CC(=O)N1CCO[C@H]2CN(C(=O)N(C)[C@H](C(=O)N[C@H]3Cc4coc(n4)-c4ccc5c(c4)c(c(-c4cccnc4[C@H](C)OC)n5CC(F)(F)F)CC(C)(C)COC(=O)[C@@H]4CCCN(N4)C3=O)C(C)C)C[C@H]21 (atropisomer, axis not shown) [Example A574] | < 5000 | 100 to 1000 | 10 to 100 | > 10000 | 1000 to 10000 | 1000 to 10000 | 1000 to 10000
15 | C=CC(=O)N1C[C@@H](N(C)C(=O)N(C)[C@H](C(=O)N[C@H]2Cc3nc(cs3)-c3ccc4c(c3)c(c(-c3cccnc3[C@H](C)OC)n4CC)CC(C)(C)COC(=O)[C@@H]3CCCN(N3)C2=O)C(C)C)[C@@H](C)C1 (atropisomer, axis not shown) [Example A583] | < 5000 | 100 to 1000 | 100 to 1000 | 1000 to 10000 | 1000 to 10000 | 1000 to 10000 | 100 to 1000
16 | C=CC(=O)N1C[C@H](C)N(C(=O)N(C)[C@H](C(=O)N[C@H]2Cc3nc(cs3)-c3ccc4c(c3)c(c(-c3cccnc3[C@H](C)OC)n4CC)CC(C)(C)COC(=O)[C@@H]3CCCN(N3)C2=O)C(C)C)CC12CC2 (atropisomer, axis not shown) [Example A586] | < 5000 | 100 to 1000 | 100 to 1000 | 1000 to 10000 | 100 to 1000 | 1000 to 10000 | 100 to 1000
17 | C=CC(=O)N1C[C@@H](C)[C@H](N(C)C(=O)N(C)[C@H](C(=O)N[C@H]2Cc3nc(cs3)-c3ccc4c(c3)c(c(-c3cccnc3[C@H](C)OC)n4CC)CC(C)(C)COC(=O)[C@@H]3CCCN(N3)C2=O)C(C)C)C1 (atropisomer, axis not shown) [Example A588] | < 5000 | 100 to 1000 | 1000 to 10000 | 1000 to 10000 | 1000 to 10000 | 1000 to 10000 | 1000 to 10000
